In US20250108038A1 (priority 2023, published 2025):
“Also recorded” adds a separate entry of the source.

Assays:
BCRP = biological target: T1, BCRP (Homo sapiens, UniProt Q9UNQ0); experiment: Vesicular transport inhibition assay, BCRP (estrone-3-sulfate); conditions: for Maximum % inhibition: BCRP, inside-out membrane vesicles, E3S (1 μM), NIO: No inhibition observed
T1 sequence (Q9UNQ0 1-655): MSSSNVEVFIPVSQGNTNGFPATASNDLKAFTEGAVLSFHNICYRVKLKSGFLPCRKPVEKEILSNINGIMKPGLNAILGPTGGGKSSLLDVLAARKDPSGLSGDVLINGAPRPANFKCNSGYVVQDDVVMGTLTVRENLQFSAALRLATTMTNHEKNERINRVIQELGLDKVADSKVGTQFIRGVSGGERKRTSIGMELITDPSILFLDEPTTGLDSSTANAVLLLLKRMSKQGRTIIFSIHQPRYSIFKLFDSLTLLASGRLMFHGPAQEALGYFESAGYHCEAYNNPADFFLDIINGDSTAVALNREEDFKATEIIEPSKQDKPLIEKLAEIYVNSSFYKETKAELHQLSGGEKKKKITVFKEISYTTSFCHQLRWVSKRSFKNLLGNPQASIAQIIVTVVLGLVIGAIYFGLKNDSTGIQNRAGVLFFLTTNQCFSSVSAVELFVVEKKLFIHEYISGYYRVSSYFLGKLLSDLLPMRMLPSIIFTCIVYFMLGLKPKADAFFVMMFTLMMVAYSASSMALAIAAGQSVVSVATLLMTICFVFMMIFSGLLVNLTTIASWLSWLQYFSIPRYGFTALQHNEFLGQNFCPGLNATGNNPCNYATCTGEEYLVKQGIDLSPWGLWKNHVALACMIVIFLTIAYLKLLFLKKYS
Method: Vesicular transport assays were performed with inside-out membrane vesicles prepared from cells overexpressing human ABC (efflux) transporters. The transporters were expressed by SOLVO Biotechnology in mammalian (HEK293) cells. The mammalian cells were stably transfected with the ABC transporter of interest. The assays were conducted according to the actual SOLVO VT assay protocols (PR-ASY-VT-General Protocol for Vesicular Transport Inhibition Assays).
The membrane vesicle suspension was mixed with the ice-cold transport buffer, then the probe substrate solution was added. […] (for BCRP and MDR1). […] Reactions were quenched by the addition of 200 μL of ice-cold washing buffer and immediate filtration via glass fiber filters mounted to a 96-well plate (filter plate). The filters were washed (5×200 μL of ice-cold washing buffer), dried and the amount of substrate inside the filtered vesicles was determined by liquid scintillation counting.
Incubation with AMP provided background activity values for all data points.

[1] = Metabolic stability in human intestinal homogenate; format: in vitro ADME; conditions: for % Remaining / Aa/Ai Mean (n = 2) / CLint(HIH) / T1/2: 1 μM; for CLint(HIH) / T1/2: 0.5 mg/mL homogenate, 1 mM NADPH
Method: The intestinal homogenate mixture solution was added to 96-well plates ([…]) in duplicate. […] Reaction was initiated by adding cofactor solution at 10 μL/well.
The intrinsic clearances were calculated using the following equations: […]

rat gut microbiota = experiment: Stability in rat gut microbiota; conditions: rat fecal matter, 37° C., 0-120 min
Method: FIG. 7A. […] Gut microbiota from rat and human sources were extracted and purified in PBS at pH 6.0 or 7.4. A stock solution of 10 mM was prepared and a 10 μL aliquot was added to extracted microorganisms at 0 min. […] Values represent mean+SEM of n=3 separate experiments.
FIG. 7B. […] Gut microbiota from rat and human sources were extracted and purified in PBS at pH 6.0 or 7.4. A stock solution of 10 mM was prepared and a 10 μL aliquot was added to extracted microorganisms at 0 min. […] Values represent mean+SEM of n=3 separate experiments.
Rat fecal material was obtained and weighed. One capsule of the raw probiotics was crushed and weighed prior to use. The weighed samples were then solubilized in PBS at pH 6.0 and 7.4 to extract microorganisms. The samples were centrifuged at 18,000×g for 10 min. to remove particulates and the supernatant was used to evaluate test article stability. An aliquot (50 μL) of the test article stock solutions were added to the fecal extract (final concentration 0.5 mM) and allowed to incubate at 37° C. […] The collected sample was quenched in acetonitrile/0.1% formic acid mixture.

[2] = 0.14 μM nominal, follow-up assay
[3] = 1.24 μM nominal, follow-up assay
[4] = 11.11 μM nominal, follow-up assay
[5] = 33.33 μM nominal, follow-up assay
[6] = 100.00 μM nominal, follow-up assay

Clc1ccc(C2(OCC3OCCO3)c3ccccc3C3=NCCN32)cc1 (stereo not shown) [Compound I-19]
ATP-dependent transport (BCRP; [2]): 13,445.33 ± 1,138.41 cpm | Relative ATP-dependent transport (BCRP; [2]): 98.49 ± 11.79 % of control | Relative inhibition (BCRP; [2]): 2% | ATP-dependent transport (BCRP; [3]): 12,617.00 ± 500.27 cpm | Relative ATP-dependent transport (BCRP; [3]): 92.42 ± 8.64 % of control | Relative inhibition (BCRP; [3]): 8% | ATP-dependent transport (BCRP; 10.00 μM nominal): 15,363.00 ± 602.94^ cpm | Relative ATP-dependent transport (BCRP; 10.00 μM nominal): 94.72 ± 7.53 % of control | Relative inhibition (BCRP; 10.00 μM nominal): 5% | ATP-dependent transport (BCRP; [4]): 12,797.67 ± 194.88 cpm | Relative ATP-dependent transport (BCRP; [4]): 93.75 ± 8.06 % of control | Relative inhibition (BCRP; [4]): 6% | ATP-dependent transport (BCRP; [5]): 10,739.00 ± 289.94 cpm | Relative ATP-dependent transport (BCRP; [5]): 78.67 ± 6.99 % of control | Relative inhibition (BCRP; [5]): 21% | ATP-dependent transport (BCRP; 100.00 μM nominal): 7,418.33 ± 222.69 cpm | Relative ATP-dependent transport (BCRP; 100.00 μM nominal): 45.74 ± 3.45 % of control | Relative inhibition (BCRP; 100.00 μM nominal): 54% | ATP-dependent transport (BCRP; [6]): 7,718.00 ± 183.19 cpm | Relative ATP-dependent transport (BCRP; [6]): 56.54 ± 4.97 % of control | Relative inhibition (BCRP; [6]): 43% | Maximum % inhibition (BCRP): 43% | maximum inhibition of BCRP-mediated E3S accumulation (BCRP; follow-up assay, seven concentrations): 43% | Compound A formed (Aa/Ai) ([1]; 0 min): 0.76 | % Remaining ([1]; 0 min): 100% | Aa/Ai Mean (n = 2) ([1]; 0 min): 0.90 | CLint(HIH) [1]: 20.0 µL/min/mg | T1/2 [1]: 1.16 h | % Remaining ([1]; 5 min): 85.6% | Aa/Ai Mean (n = 2) ([1]; 5 min): 0.77 | % Remaining ([1]; 10 min): 82.8% | Aa/Ai Mean (n = 2) ([1]; 10 min): 0.75 | % Remaining ([1]; 20 min): 68.4% | Aa/Ai Mean (n = 2) ([1]; 20 min): 0.62 | % Remaining ([1]; 30 min): 65.2% | Aa/Ai Mean (n = 2) ([1]; 30 min): 0.59 | % Remaining ([1]; 60 min): 52.6% | Aa/Ai Mean (n = 2) ([1]; 60 min): 0.47 | % Remaining ([1]; NCF60 (60 min, no cofactors)): 55.5% | Aa/Ai Mean (n = 2) ([1]; NCF60 (60 min, no cofactors)): 0.50 | Compound A formed (Aa/Ai) ([1]; 5 min): 0.67 | Compound A formed (Aa/Ai) ([1]; 10 min): 0.67 | Compound A formed (Aa/Ai) ([1]; 20 min): 0.65 | Compound A formed (Aa/Ai) ([1]; 30 min): 0.61 | Compound A formed (Aa/Ai) ([1]; 60 min): 0.53 | Compound A formed (Aa/Ai) ([1]; NCF60 (60 min, no cofactors)): 0.58 | % parent compound remaining (rat gut microbiota; pH 6, 0.5 mM): at or above 100% for all time points except 120 min | % parent compound remaining (rat gut microbiota; pH 7.4, 0.5 mM): time-dependent decrease in the amount of parent compound present; also recorded: unstable

OC1(c2ccc(Cl)cc2)c2ccccc2C2=NCCN21 (stereo not shown) [Compound A, 5-(4-chlorophenyl)-2,3-dihydroimidazo[1,2-b]isoindol-5-ol, reference compound]
Relative ATP-dependent transport (BCRP; 5.00 μM nominal): 100.28 ± 5.84 % of control | Relative ATP-dependent transport (BCRP; 50.00 μM nominal): 97.83 ± 3.82 % of control | maximum inhibition of BCRP-mediated E3S accumulation (BCRP; 2-concentration assay, up to 100 μM (Compound A up to 50 μM)): did not inhibit; also recorded: not an in vitro inhibitor | Maximum % inhibition (BCRP): NIO | inhibition at 5 μM (BCRP; human): 0% | inhibition at 50 μM (BCRP; human): 2%

COCCOC1(c2ccc(Cl)cc2)c2ccccc2C2=NCCN21 (stereo not shown) [Compound I-4]
Compound A formed (Aa/Ai) ([1]; 0 min): 0.46 | % Remaining ([1]; 0 min): 100% | Aa/Ai Mean (n = 2) ([1]; 0 min): 1.34 | CLint(HIH) [1]: 8.40 µL/min/mg | T1/2 [1]: 2.75 h | % Remaining ([1]; 5 min): 97.6% | Aa/Ai Mean (n = 2) ([1]; 5 min): 1.31 | % Remaining ([1]; 10 min): 87.3% | Aa/Ai Mean (n = 2) ([1]; 10 min): 1.17 | % Remaining ([1]; 20 min): 88.0% | Aa/Ai Mean (n = 2) ([1]; 20 min): 1.18 | % Remaining ([1]; 30 min): 87.4% | Aa/Ai Mean (n = 2) ([1]; 30 min): 1.17 | % Remaining ([1]; 60 min): 75.8% | Aa/Ai Mean (n = 2) ([1]; 60 min): 1.01 | % Remaining ([1]; NCF60 (60 min, no cofactors)): 80.4% | Aa/Ai Mean (n = 2) ([1]; NCF60 (60 min, no cofactors)): 1.08 | Compound A formed (Aa/Ai) ([1]; 5 min): 0.54 | Compound A formed (Aa/Ai) ([1]; 10 min): 0.50 | Compound A formed (Aa/Ai) ([1]; 20 min): 0.51 | Compound A formed (Aa/Ai) ([1]; 30 min): 0.58 | Compound A formed (Aa/Ai) ([1]; 60 min): 0.50 | Compound A formed (Aa/Ai) ([1]; NCF60 (60 min, no cofactors)): 0.69 | % parent compound remaining (rat gut microbiota; pH 6, 0.5 mM): ≥ 100% | % parent compound remaining (rat gut microbiota; pH 7.4, 0.5 mM): ≥ 100%
